Reference: patent EP4810052A2, “HCRHR2 SELECTIVE POLYPEPTIDES” (Gubra A/S, priority 2023, dated 2026)
Where two headings read alike, the source gives them in different places. Marks after values point to notes of the source that are not given here. Starred links: 1 amine or outer side, 2 acyl side, 3 side chain; linkers in the order of their positions; H or OH if unused. Non-standard residues stand in square brackets, D forms with d. Residues, ends and D or L forms follow the SMILES beside them. Groups on a side chain read outwards from the residue. *: point of attachment. C20 diacid = O=C(O)CCCCCCCCCCCCCCCCCCC(=O)*; γGlu = O=C(O)[C@H](CCC(=O)[*:2])N[*:1]; NMeI = CC[C@H](C)[C@H](NC)C(=O)O; AEEA = NCCOCCOCC(=O)O

How the values were obtained:
[1] = biological target: T1, hCRHR1 (Homo sapiens, UniProt P34998); assay: HTRF cAMP assay, determination of hCRHR1 potency (peptide libraries 5 conc., purified peptides 11 conc.); format: cell-based
T1 sequence (P34998 24-415): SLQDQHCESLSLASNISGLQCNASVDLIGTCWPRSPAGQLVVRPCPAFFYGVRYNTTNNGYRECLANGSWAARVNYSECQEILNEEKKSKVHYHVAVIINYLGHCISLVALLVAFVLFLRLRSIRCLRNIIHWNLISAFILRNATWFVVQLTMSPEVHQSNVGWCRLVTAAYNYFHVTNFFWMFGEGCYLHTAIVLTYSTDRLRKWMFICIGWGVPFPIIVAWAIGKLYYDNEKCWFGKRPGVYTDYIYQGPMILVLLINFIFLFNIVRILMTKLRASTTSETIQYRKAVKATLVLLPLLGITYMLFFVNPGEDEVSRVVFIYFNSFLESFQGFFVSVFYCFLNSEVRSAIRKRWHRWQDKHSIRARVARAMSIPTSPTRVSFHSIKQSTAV
In short: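 CHO-K1 cells stably expressing human CRHR1, thawed from frozen stocks just before use, were stimulated in suspension with agonist peptides. cAMP was measured by HTRF competitive immunoassay (cryptate anti-cAMP antibody vs d2-cAMP).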

[2] = biological target: T2, hCRHR2 (Homo sapiens, UniProt Q13324); assay: HTRF cAMP assay, determination of hCRHR2 potency (peptide libraries 5 conc., purified peptides 11 conc.); format: cell-based
T2 sequence (Q13324 1-411): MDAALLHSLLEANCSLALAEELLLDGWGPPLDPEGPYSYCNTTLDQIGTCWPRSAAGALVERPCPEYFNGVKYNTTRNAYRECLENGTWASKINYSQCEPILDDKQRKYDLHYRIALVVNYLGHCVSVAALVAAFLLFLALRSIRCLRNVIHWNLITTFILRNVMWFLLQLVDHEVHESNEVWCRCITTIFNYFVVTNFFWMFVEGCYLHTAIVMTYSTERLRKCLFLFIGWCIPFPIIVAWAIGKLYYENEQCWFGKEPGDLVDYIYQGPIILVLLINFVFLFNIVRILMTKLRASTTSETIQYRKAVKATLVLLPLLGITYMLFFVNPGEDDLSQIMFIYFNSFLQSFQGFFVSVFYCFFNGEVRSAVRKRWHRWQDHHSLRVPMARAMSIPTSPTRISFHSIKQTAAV
In short: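 Agonist peptides are added to suspended, freshly thawed CHO-K1 cells that stably carry the human receptor. Intracellular cAMP competes with d2-cAMP for a cryptate-tagged antibody, lowering the FRET signal. A variable-slope sigmoid curve is fitted to obtain EC50.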

[3] = Effect on acute food intake in mice; format: in vivo; settings: single subcutaneous dose
Description: Male NMRI mice were obtained from JanVier (JanVier Labs, France) at 5 weeks of age. The animals were group-housed 4 mice pr. cage under a 12/12 h dark-light cycle, light off at 1 PM. Room temperature was controlled to 22°C ± 1°C, with 60 % ± 20% humidity. Animals had ad libitum access to regular rodent chow (Altromin 1324, Brogaarden, Denmark) and tap water.
Animals were transferred 5-7 days before the start of the study to a real-time food intake monitoring system, HM-2 system (MBRose, Denmark) to allow acclimatization to experimental conditions. As the animals were uniquely identified with microchips, each individual animal was identified by its microchip upon entry and exit from the food channel. Randomization of the mice for each study group (n=7-8) was based on body weight measured the day before the start of the study. A vehicle-treated group was included in each experiment. Six hours before the start of the dark phase, animals were fasted. One hour before the dark phase, animals were dosed once subcutaneously with test peptide. Food intake was reported hourly for a period of 72 hours. The percentage of food intake reduction was normalized to average food intake from the vehicle group. Statistical significance was evaluated using One-way analysis of variance with Dunnett's multiple comparison test. P < 0.05 was considered statistically significant.
Selected compounds were tested according to the general procedure on acute food intake in mice to determine the effect of a single subcutaneous dose on food intake in mice over 3 days.

[4] = pH 7.5
[5] = PK in rats; format: in vivo; design: T½ / MRT: unit not given here; settings: for half-life: read-out: T½ (converted)
Description: Lean male Sprague Dawley rats (RJHan:SD) were obtained from JanVier (JanVier Labs, France) at 7 weeks of age. The animals were pair housed until randomization under a 12/12 h dark-light cycle, light off at 3 PM. Room temperature was controlled to 22°C ± 1°C, with 60 % ± 20% humidity.
Animals had ad libitum access to regular rodent chow (Altromin 1324, Brogaarden, Denmark) and tap water.
After 2 weeks of acclimatization, the animals were single housed and randomized into treatment groups (n = 3 per group) based on body weight on study day -3. On study day 1, animals were dosed 50 nmol/kg IV and SC in combination of two peptides. Plasma samples were collected for PK analysis at times 0.17, 1, 3, 6, 24, 30, 48, 72 and 96 hours post dosing. Plasma samples were analyzed using LC-MSMS and PK parameters were estimated by Non-Compartmental Analysis (NCA).

[6] = purified peptides, CHO-K1 cells stably expressing hCRHR1, cAMP HTRF, read-out: hCRHR1 EC50
[7] = purified peptides, CHO-K1 cells stably expressing hCRHR2, cAMP HTRF, read-out: hCRHR2 EC50
[8] = male, Sprague Dawley (RJHan:SD), in vivo, iv, Rat, 50 nmol/kg i.v.
[9] = male, Sprague Dawley (RJHan:SD), in vivo, sc, Rat, 50 nmol/kg s.c.

| SMILES | EC50 [1, 6] [nM] | Selectivity ratio (hCRHR1/ hCRHR2) ([2]; hCRHR1-EC50/hCRHR2-EC50) | EC50 [2, 7] [nM] | % FI compared to vehicle, 24 h post-dosing ([3]; 30 nmol/kg) | % FI compared to vehicle, 24 h post-dosing ([3]; 100 nmol/kg) | % FI compared to vehicle, 24 h post-dosing ([3]; 300 nmol/kg) | Solubility pH 7.5, target conc. =10 mg/mL (measured mg/mL) [4] [mg/mL] | MRT ([5]; Rat) | T½ ([5]; Rat) | also measured |
| --- | --- | --- | --- | --- | --- | --- | --- | --- | --- | --- |
| CC[C@H](C)[C@H](N)C(=O)N[C@H](C(=O)N[C@@H](CC(C)C)C(=O)N[C@@H](CO)C(=O)N[C@@H](CC(C)C)C(=O)N[C@@H](CC(=O)O)C(=O)N[C@H](C(=O)N1CCC[C@H]1C(=O)N[C@H](C(=O)NCC(=O)N[C@@H](CC(C)C)C(=O)N[C@@H](CC(C)C)C(=O)N[C@@H](CCC(N)=O)C(=O)N[C@H](C(=O)N[C@@H](CC(C)C)C(=O)N[C@@H](CC(C)C)C(=O)N[C@@H](CCC(=O)O)C(=O)N[C@@H](CCC(N)=O)C(=O)N[C@@H](C)C(=O)N[C@@H](CCCNC(=N)N)C(=O)N[C@@H](C)C(=O)N[C@@H](CCCNC(=N)N)C(=O)N[C@@H](C)C(=O)N[C@@H](C)C(=O)N[C@@H](CCCNC(=N)N)C(=O)N[C@@H](CCC(=O)O)C(=O)N[C@@H](CCC(N)=O)C(=O)N[C@@H](C)C(=O)N[C@@H](CCCCNC(=O)COCCOCCNC(=O)COCCOCCNC(=O)CC[C@H](NC(=O)CC[C@H](NC(=O)CCCCCCCCCCCCCCCCCCC(=O)O)C(=O)O)C(=O)O)C(=O)N[C@H](C(=O)N[C@@H](CC(N)=O)C(=O)N[C@@H](C)C(=O)N[C@@H](CCC(=O)O)C(=O)N[C@H](C(=O)N[C@@H](CC(C)C)C(=O)N[C@@H](C)C(=O)N[C@@H](CCC(=O)O)C(=O)N[C@H](C(N)=O)C(C)C)[C@@H](C)CC)[C@@H](C)O)[C@@H](C)CC)[C@@H](C)CC)C(C)C)C(C)C [SEQ ID NO: 3] (H-IVLSLDVPIGLLQILLEQARARAAREQAK([AEEA-AEEA-γGlu-γGlu-C20 diacid])TNAEILAEV-NH2) | > 5000 | >4546 | 1.1 | 67.63*** % | 30.75*** % | 30.66*** % | 10 | 9.2 | 7.7 | EC50 ([1]; Table 3, matched molecular pairs X^38 L vs Nle, peptide library of Example 4, read-out: hCRHR1 pEC50 (converted)): 25100 nM; EC50 ([1]; Table 5, purified peptides, read-out: hCRHR1 EC50): > 5000 nM; EC50 ([1]; stable cell system, Table 10, read-out: Stable EC50 (nM) hCRHR 1): > 5000 nM; EC50 ([2]; Table 3, matched molecular pairs X^38 L vs Nle, peptide library of Example 4, read-out: hCRHR2 pEC50 (converted)): 0.501 nM; Selectivity ratio (hCRHR1/ hCRHR2) ([2]; Table 5): >4546; Solubility pH 7.5, target conc. =5 mg/mL (measured mg/mL) [4]: 4.5 mg/mL; clearance [5, 8]: 5 mL/h/kg; half-life [5, 8]: 7.7 h; Cmax [5, 9]: 90 nM; Tmax [5, 9]: 24 h; half-life [5, 9]: 7.9 h; bioavailability ([5]; male, Sprague Dawley, rat, in vivo, sc): 27% |
| CC[C@H](C)[C@H](N)C(=O)N[C@H](C(=O)N[C@@H](CC(C)C)C(=O)N[C@@H](CO)C(=O)N[C@@H](CC(C)C)C(=O)N[C@@H](CC(=O)O)C(=O)N[C@H](C(=O)N1CCC[C@H]1C(=O)N[C@H](C(=O)NCC(=O)N[C@@H](CC(C)C)C(=O)N[C@@H](CC(C)C)C(=O)N[C@@H](CCC(N)=O)C(=O)N[C@H](C(=O)N[C@@H](CC(C)C)C(=O)N[C@@H](CC(C)C)C(=O)N[C@@H](CCC(=O)O)C(=O)N[C@@H](CCC(N)=O)C(=O)N[C@@H](C)C(=O)N[C@@H](CCCNC(=N)N)C(=O)N[C@@H](C)C(=O)N[C@@H](CCCNC(=N)N)C(=O)N[C@@H](C)C(=O)N[C@@H](C)C(=O)N[C@@H](CCCNC(=N)N)C(=O)N[C@@H](CCC(=O)O)C(=O)N[C@@H](CCC(N)=O)C(=O)N[C@@H](C)C(=O)N[C@H](C(=O)N[C@@H](CCCCNC(=O)COCCOCCNC(=O)COCCOCCNC(=O)CC[C@H](NC(=O)CC[C@H](NC(=O)CCCCCCCCCCCCCCCCCCC(=O)O)C(=O)O)C(=O)O)C(=O)N[C@@H](CC(N)=O)C(=O)N[C@@H](C)C(=O)N[C@@H](CCC(=O)O)C(=O)N[C@H](C(=O)N[C@@H](CC(C)C)C(=O)N[C@@H](C)C(=O)N[C@@H](CCC(=O)O)C(=O)N[C@H](C(N)=O)C(C)C)[C@@H](C)CC)[C@@H](C)O)[C@@H](C)CC)[C@@H](C)CC)C(C)C)C(C)C [SEQ ID NO: 4] (H-IVLSLDVPIGLLQILLEQARARAAREQATK([AEEA-AEEA-γGlu-γGlu-C20 diacid])NAEILAEV-NH2) | > 5000 | >3846 | 1.3 | 63.41*** % | 19.33*** % | 18.14*** % | 9.1 | 6.4 | 5.3 | – |
| CC[C@H](C)[C@H](NC)C(=O)N[C@H](C(=O)N[C@@H](CC(C)C)C(=O)N[C@@H](CO)C(=O)N[C@@H](CC(C)C)C(=O)N[C@@H](CC(=O)O)C(=O)N[C@H](C(=O)N1CCC[C@H]1C(=O)N[C@H](C(=O)NCC(=O)N[C@@H](CC(C)C)C(=O)N[C@@H](CC(C)C)C(=O)N[C@@H](CCC(N)=O)C(=O)N[C@H](C(=O)N[C@@H](CC(C)C)C(=O)N[C@@H](CC(C)C)C(=O)N[C@@H](CCC(=O)O)C(=O)N[C@@H](CCC(N)=O)C(=O)N[C@@H](C)C(=O)N[C@@H](CCCNC(=N)N)C(=O)N[C@@H](C)C(=O)N[C@@H](CCCNC(=N)N)C(=O)N[C@@H](C)C(=O)N[C@@H](C)C(=O)N[C@@H](CCCNC(=N)N)C(=O)N[C@@H](CCC(=O)O)C(=O)N[C@@H](CCC(N)=O)C(=O)N[C@@H](C)C(=O)N[C@@H](CCCCNC(=O)COCCOCCNC(=O)COCCOCCNC(=O)CC[C@H](NC(=O)CC[C@H](NC(=O)CCCCCCCCCCCCCCCCCCC(=O)O)C(=O)O)C(=O)O)C(=O)N[C@H](C(=O)N[C@@H](CC(N)=O)C(=O)N[C@@H](C)C(=O)N[C@@H](CCC(=O)O)C(=O)N[C@H](C(=O)N[C@@H](CC(C)C)C(=O)N[C@@H](C)C(=O)N[C@@H](CCC(=O)O)C(=O)N[C@H](C(N)=O)C(C)C)[C@@H](C)CC)[C@@H](C)O)[C@@H](C)CC)[C@@H](C)CC)C(C)C)C(C)C [SEQ ID NO: 5] (H-[NMeI]VLSLDVPIGLLQILLEQARARAAREQAK([AEEA-AEEA-γGlu-γGlu-C20 diacid])TNAEILAEV-NH2) | > 5000 | >4167 | 1.2 | 45.67*** % | 18.68*** % | 15.93*** % | 11 | 7.9 | 8.6 | – |
